Experiments:
Experiment in all cases: Test A pre-/postemergence herbicide test
morningglory = format: in vivo, Ipomoea spp.
Source text: (§1) Seeds of plant species selected from bamyardgrass (Echinochloa crus-galli), kochia (Kochia scoparia), ragweed (common ragweed, Ambrosia elatior), ryegrass, Italian (Italian ryegrass, Lolium multiflorum), crabgrass, large (large crabgrass Digitaria sanguinalis), giant foxtail (Setaria faberii), morningglory (Ipomoea spp.), pigweed (Amaranthus retroflexus), velvetleaf (Abutilon theophrasti), wheat (Triticum aestivum), and corn (Zea mays) were planted into a blend of loam soil and sand and treated preemergence with a directed soil spray using test chemicals formulated in a non-phytotoxic solvent mixture which included a surfactant. At the same time, plants selected from these crop and weed species and also blackgrass (Alopecurus myosuroides), and galium (catchweed bedstraw, Galium aparine) were planted in pots containing the same blend of loam soil and sand and treated with postemergence applications of test chemicals formulated in the same manner. Plants ranged in height from 2 to 10 cm and were in the one- to two-leaf stage for the postemergence treatment. Treated plants and untreated controls were maintained in a greenhouse for approximately 10 days, after which time all treated plants were compared to untreated controls and visually evaluated for injury. Plant response ratings, summarized in Table A, are based on a 0 to 100 scale where 0 is no effect and 100 is complete control. A dash (-) response means no test result.

corn = format: in vivo, Zea mays
Source text: as §1

giant foxtail = format: in vivo, Setaria faberii
Source text: as §1

barnyardgrass = format: in vivo, Echinochloa crus-galli
Source text: as §1

velvetleaf = format: in vivo, Abutilon theophrasti
Source text: as §1

wheat = format: in vivo, Triticum aestivum
Source text: as §1

pigweed = format: in vivo, Amaranthus retroflexus
Source text: as §1

crabgrass, large = format: in vivo, Digitaria sanguinalis
Source text: as §1

[1] = Postemergence, 1000 g ai/ha, 0 to 100 scale (0 no effect, 100 complete control)
[2] = preemergence, 1000 g ai/ha, 0 to 100 scale
[3] = preemergence, 1000 g ai/ha, 0 to 100 scale (0 no effect, 100 complete control)
[4] = Postemergence, 125 g ai/ha, 0 to 100 scale, 0 no effect, 100 complete control
[5] = Postemergence, 500 g ai/ha, 0 to 100 scale (0 no effect, 100 complete control)
[6] = Preemergence, 125 g ai/ha, visual rating on 0 to 100 scale (0 no effect, 100 complete control)
[7] = preemergence, 500 g ai/ha, 0 to 100 scale
[8] = preemergence, 500 g ai/ha, 0 to 100 scale (0 no effect, 100 complete control)
[9] = Preemergence, 1000 g ai/ha, visual rating on 0 to 100 scale (0 no effect, 100 complete control), approx. 10 days

For `Cn1cc(C2CNC(=O)C2C(=O)Nc2cccc(F)c2F)cn1` (racemic) [Compound 253], the “Plant response rating, Morningglory” value (morningglory; [1]) was 10, the “Plant response rating, Morningglory” value (morningglory; [2]) was 0 and the “Plant response rating, Corn” value (corn; [1]) was 0. The “Plant response rating, Corn” value (corn; [2]) was 0, the “Plant response rating, Foxtail, Giant” value (giant foxtail; [1]) was 20 and the “Plant response rating, Foxtail, Giant” value (giant foxtail; [2]) was 0. For the same molecule, the “Plant response rating, Barnyardgrass” value (barnyardgrass; [1]) was 0, the “Plant response rating, Barnyardgrass” value (barnyardgrass; [3]) was 0 and the “Plant response rating, Velvetleaf” value (velvetleaf; [1]) was 0. For the same molecule, the “Plant response rating, Velvetleaf” value (velvetleaf; [2]) was 0, the “Plant response rating, Wheat” value (wheat; [1]) was 0 and the “Plant response rating, Wheat” value (wheat; [2]) was 0. For the same molecule, the “Plant response rating, Pigweed” value (pigweed; [1]) was 0, the “Plant response rating, Pigweed” value (pigweed; [2]) was 0 and the “Plant response rating, Crabgrass, Large” value (crabgrass, large; [1]) was 20. The “Plant response rating, Crabgrass, Large” value (crabgrass, large; [2]) was 0.
For `O=C1NCC(c2ccccc2)C1(Br)C(=O)Nc1ccc(Br)cc1F` (centres unmarked) [Compound 94], the “Plant response rating, Morningglory” value (morningglory; [4]) was 0, the “Plant response rating, Morningglory” value (morningglory; [5]) was 0 and the “Morningglory plant response rating” value (morningglory; [6]) was 0. The “Plant response rating, Morningglory” value (morningglory; [7]) was 0, the “Plant response rating, Corn” value (corn; [4]) was 0 and the “Plant response rating, Corn” value (corn; [5]) was 0. The “Corn plant response rating” value (corn; [6]) was 0, the “Plant response rating, Corn” value (corn; [7]) was 0 and the “Plant response rating, Foxtail, Giant” value (giant foxtail; [4]) was 0. For the same molecule, the “Plant response rating, Foxtail, Giant” value (giant foxtail; [5]) was 0, the “Foxtail, Giant plant response rating” value (giant foxtail; [6]) was 0 and the “Plant response rating, Foxtail, Giant” value (giant foxtail; [7]) was 0. For the same molecule, the “Plant response rating, Barnyardgrass” value (barnyardgrass; [4]) was 0, the “Plant response rating, Barnyardgrass” value (barnyardgrass; [5]) was 0 and the “Barnyardgrass plant response rating” value (barnyardgrass; [6]) was 0. For the same molecule, the “Plant response rating, Barnyardgrass” value (barnyardgrass; [8]) was 0, the “Plant response rating, Velvetleaf” value (velvetleaf; [4]) was 0 and the “Plant response rating, Velvetleaf” value (velvetleaf; [5]) was 0. The “Velvetleaf plant response rating” value (velvetleaf; [6]) was 0, the “Plant response rating, Wheat” value (wheat; [4]) was 0 and the “Plant response rating, Wheat” value (wheat; [5]) was 0. For the same molecule, the “Wheat plant response rating” value (wheat; [6]) was 0, the “Plant response rating, Wheat” value (wheat; [7]) was 0 and the “Plant response rating, Pigweed” value (pigweed; [4]) was 0. For the same molecule, the “Plant response rating, Pigweed” value (pigweed; [5]) was 0, the “Pigweed plant response rating” value (pigweed; [6]) was 0 and the “Plant response rating, Crabgrass, Large” value (crabgrass, large; [4]) was 0. For the same molecule, the “Plant response rating, Crabgrass, Large” value (crabgrass, large; [5]) was 0, the “Crabgrass, Large plant response rating” value (crabgrass, large; [6]) was 0 and the “Plant response rating, Crabgrass, Large” value (crabgrass, large; [7]) was 50.
For `N#Cc1ccccc1NC(=O)C1C(=O)NCC1c1ccccc1` (racemic) [Compound 86], the “Plant response rating, Morningglory” value (morningglory; [4]) was 0, the “Plant response rating, Morningglory” value (morningglory; [5]) was 0 and the “Morningglory plant response rating” value (morningglory; [6]) was 0. The “Plant response rating, Morningglory” value (morningglory; [7]) was 0, the “Plant response rating, Corn” value (corn; [4]) was 0 and the “Plant response rating, Corn” value (corn; [5]) was 0. The “Corn plant response rating” value (corn; [6]) was 0, the “Plant response rating, Corn” value (corn; [7]) was 20 and the “Plant response rating, Foxtail, Giant” value (giant foxtail; [4]) was 0. For the same molecule, the “Plant response rating, Foxtail, Giant” value (giant foxtail; [5]) was 10, the “Foxtail, Giant plant response rating” value (giant foxtail; [6]) was 20 and the “Plant response rating, Foxtail, Giant” value (giant foxtail; [7]) was 60. The “Plant response rating, Barnyardgrass” value (barnyardgrass; [4]) was 0, the “Plant response rating, Barnyardgrass” value (barnyardgrass; [5]) was 20 and the “Barnyardgrass plant response rating” value (barnyardgrass; [6]) was 0. For the same molecule, the “Plant response rating, Barnyardgrass” value (barnyardgrass; [8]) was 40, the “Plant response rating, Velvetleaf” value (velvetleaf; [4]) was 0 and the “Plant response rating, Velvetleaf” value (velvetleaf; [5]) was 0. The “Velvetleaf plant response rating” value (velvetleaf; [6]) was 0, the “Plant response rating, Velvetleaf” value (velvetleaf; [7]) was 0 and the “Plant response rating, Wheat” value (wheat; [4]) was 0. For the same molecule, the “Plant response rating, Wheat” value (wheat; [5]) was 0, the “Wheat plant response rating” value (wheat; [6]) was 0 and the “Plant response rating, Wheat” value (wheat; [7]) was 0. The “Plant response rating, Pigweed” value (pigweed; [4]) was 0, the “Plant response rating, Pigweed” value (pigweed; [5]) was 0 and the “Pigweed plant response rating” value (pigweed; [6]) was 0. The “Plant response rating, Pigweed” value (pigweed; [7]) was 0, the “Plant response rating, Crabgrass, Large” value (crabgrass, large; [4]) was 0 and the “Plant response rating, Crabgrass, Large” value (crabgrass, large; [5]) was 60. For the same molecule, the “Crabgrass, Large plant response rating” value (crabgrass, large; [6]) was 60 and the “Plant response rating, Crabgrass, Large” value (crabgrass, large; [7]) was 80.
In the case of `O=C1NCC(c2ccc(F)c(F)c2)C1C(=O)N(O)c1ccccc1` (centres unmarked) [Compound 71], the “Plant response rating, Corn” value (corn; [1]) was 0, the “Plant response rating, Corn” value (corn; [9]) was 0 and the “Plant response rating, Foxtail, Giant” value (giant foxtail; [1]) was 60. For the same molecule, the “Plant response rating, Foxtail, Giant” value (giant foxtail; [9]) was 60, the “Plant response rating, Barnyardgrass” value (barnyardgrass; [1]) was 50 and the “Plant response rating, Barnyardgrass” value (barnyardgrass; [9]) was 50. For the same molecule, the “Plant response rating, Velvetleaf” value (velvetleaf; [1]) was 0, the “Plant response rating, Velvetleaf” value (velvetleaf; [9]) was 0 and the “Plant response rating, Wheat” value (wheat; [1]) was 0. For the same molecule, the “Plant response rating, Wheat” value (wheat; [9]) was 0, the “Plant response rating, Pigweed” value (pigweed; [1]) was 0 and the “Plant response rating, Pigweed” value (pigweed; [9]) was 0. The “Plant response rating, Crabgrass, Large” value (crabgrass, large; [1]) was 80 and the “Plant response rating, Crabgrass, Large” value (crabgrass, large; [9]) was 80.
In the case of `O=C1NCC(c2ccc(F)c(F)c2)C1C(=O)Nc1cccc(=O)[nH]1` (racemic) [Compound 96], the “Plant response rating, Morningglory” value (morningglory; [1]) was 0, the “Plant response rating, Morningglory” value (morningglory; [9]) was 0 and the “Plant response rating, Corn” value (corn; [1]) was 0. For the same molecule, the “Plant response rating, Corn” value (corn; [9]) was 0, the “Plant response rating, Foxtail, Giant” value (giant foxtail; [1]) was 0 and the “Plant response rating, Foxtail, Giant” value (giant foxtail; [9]) was 0. For the same molecule, the “Plant response rating, Barnyardgrass” value (barnyardgrass; [1]) was 0, the “Plant response rating, Barnyardgrass” value (barnyardgrass; [9]) was 0 and the “Plant response rating, Velvetleaf” value (velvetleaf; [1]) was 0. For the same molecule, the “Plant response rating, Velvetleaf” value (velvetleaf; [9]) was 0, the “Plant response rating, Wheat” value (wheat; [1]) was 0 and the “Plant response rating, Wheat” value (wheat; [9]) was 0. For the same molecule, the “Plant response rating, Pigweed” value (pigweed; [1]) was 0, the “Plant response rating, Pigweed” value (pigweed; [9]) was 0 and the “Plant response rating, Crabgrass, Large” value (crabgrass, large; [1]) was 0. For the same molecule, the “Plant response rating, Crabgrass, Large” value (crabgrass, large; [9]) was 0.
With `Cn1cc(C2CNC(=O)C2C(=O)Nc2ccccc2F)cn1` (racemic) [Compound 254] the “Plant response rating, Morningglory” value (morningglory; [1]) was 0, the “Plant response rating, Morningglory” value (morningglory; [2]) was 0 and the “Plant response rating, Corn” value (corn; [1]) was 0. For the same molecule, the “Plant response rating, Corn” value (corn; [2]) was 0, the “Plant response rating, Foxtail, Giant” value (giant foxtail; [1]) was 0 and the “Plant response rating, Foxtail, Giant” value (giant foxtail; [2]) was 40. The “Plant response rating, Barnyardgrass” value (barnyardgrass; [1]) was 0, the “Plant response rating, Barnyardgrass” value (barnyardgrass; [3]) was 0 and the “Plant response rating, Velvetleaf” value (velvetleaf; [1]) was 0. For the same molecule, the “Plant response rating, Velvetleaf” value (velvetleaf; [2]) was 0, the “Plant response rating, Wheat” value (wheat; [1]) was 0 and the “Plant response rating, Wheat” value (wheat; [2]) was 0. The “Plant response rating, Pigweed” value (pigweed; [1]) was 0, the “Plant response rating, Pigweed” value (pigweed; [2]) was 0 and the “Plant response rating, Crabgrass, Large” value (crabgrass, large; [1]) was 0. For the same molecule, the “Plant response rating, Crabgrass, Large” value (crabgrass, large; [2]) was 70.
With `Cn1ccnc1C1CNC(=O)C1C(=O)Nc1ccccc1F` (racemic) [Compound 255] the “Plant response rating, Morningglory” value (morningglory; [1]) was 0, the “Plant response rating, Morningglory” value (morningglory; [2]) was 0 and the “Plant response rating, Corn” value (corn; [1]) was 0. For the same molecule, the “Plant response rating, Corn” value (corn; [2]) was 0, the “Plant response rating, Foxtail, Giant” value (giant foxtail; [1]) was 0 and the “Plant response rating, Foxtail, Giant” value (giant foxtail; [2]) was 70. For the same molecule, the “Plant response rating, Barnyardgrass” value (barnyardgrass; [1]) was 0, the “Plant response rating, Barnyardgrass” value (barnyardgrass; [3]) was 60 and the “Plant response rating, Velvetleaf” value (velvetleaf; [1]) was 0. For the same molecule, the “Plant response rating, Velvetleaf” value (velvetleaf; [2]) was 0, the “Plant response rating, Wheat” value (wheat; [1]) was 0 and the “Plant response rating, Wheat” value (wheat; [2]) was 0. For the same molecule, the “Plant response rating, Pigweed” value (pigweed; [1]) was 0, the “Plant response rating, Pigweed” value (pigweed; [2]) was 0 and the “Plant response rating, Crabgrass, Large” value (crabgrass, large; [1]) was 0. The “Plant response rating, Crabgrass, Large” value (crabgrass, large; [2]) was 90.
